Source: PMC8026479 (Cancer Chemotherapy and Pharmacology, 2021)

Columns and labels:
[1] = test system: total bone marrow cycling cells; set-up: method as in doi:10.1200/jco.2015.33.15_suppl.2529; conditions: dogs; cited from earlier work
[2] = test system: CD45+/CD3+ lymphocytes; assay: Ex vivo PHA-stimulated lymphocyte proliferation assay (G1T28-1-01); type: in vivo; conditions: Homo sapiens, 96 mg/m2, 4 h after end of infusion, read-out: maximum mean inhibition of proliferation of CD45+/CD3+ lymphocytes
Protocol: Healthy male and/or female subjects aged 18–60 years, with a body weight of ≥ 50 kg and a body mass index of 18–32 kg/m^2, were enrolled. […] Following a 1-h exposure to EdU, cells were harvested, processed, and analyzed by flow cytometry to measure the percentage of proliferation through EdU + incorporation in CD45 + /CD3 + cells (T lymphocytes).
Two bone marrow samples (one pre-dose and one at 32 h post-dose) were excluded from analysis owing to contamination with peripheral blood. c Relative percentage of total bone marrow cells in the S phase at 24 and 32 h post-trilaciclib dose (n = 10). Data shown are mean ± standard deviation.

[3] = human, in vivo; cited from earlier work
[4] = Population PK model with allometric scaling of preclinical and human PK data; set-up: species or system mouse, rat, dog; conditions: estimated
Excerpt: Owing to the invasive nature of the PD marker collection (i.e. bone marrow aspiration), a semi-mechanistic PK/PD model based on animal PK/PD data and human PK data was developed to guide the selection of an optimal dose level for bone marrow aspiration in humans during dose escalation in the Phase I first-in-human study. The model was constructed using PK data from four species (mouse, rat, dog, and human) and PD data from three species (mouse, rat, and dog; Online Resources 1 and 2).
The model was constructed in two stages. First, preclinical PK data (e.g. doses, routes, and schedule of administration, observed concentrations) were compiled and modeled by allometric scaling. A sequential PK/PD modeling approach (population PK parameters and data approach) was then employed in which a semi-mechanistic PD model with various physiological compartments was created, and specific assumptions entered (Online Resource 3). Traditional forward addition/backward elimination was used for PK modeling. […] Many parameters in this complex model could not be estimated and were fixed either to the literature values or values selected on the basis of discussions with domain experts and sensitivity analysis. In preclinical animal models, the PD analysis modeled bone marrow cells positive for 5′-ethynyl-2′-deoxyuridine (EdU) and peripheral neutrophil counts simultaneously. Although the preclinical animal models could determine the G1 phase, they could not differentiate S, G2, and M phases; cells in these phases will be referred to as “cycling” throughout this manuscript.
Online Resource 1 List of studies used in PK and PD models
Data set Species Administration route Endpoint
BM bone marrow, EdU 5’-ethynyl-2’-deoxyuridine, IP intraperitoneal, IV intravenous, PD pharmacodynamics , PK
pharmacokinetics , PMN polymorphonuclear cell
Online Resource 2 Brief description of animal studies used in PK and PD models
Preclinical pharmacokinetic (PK)/toxicokinetic studies were conducted in mice, rats, and dogs. Data from eight
studies in four species, with a total of 1628 observations from 191 individuals, were used for PK/pharmacodynamic
(PD) modeling. Administration routes included oral, intravenous (IV), and intraperitoneal (IP). The designs of these
studies are described briefly below:
samples were collected from pre dose up to 48 h post dose. In rat toxicology studies, rats received 7-day
PK samples were collected
from pre dose up to 24 h post dose on Day 1 and Day 7.
samples were collected from pre dose up to 30 h post dose.
IV infusion. […]
Online Resource 3 PK/PD model parameters and assumptions
PK model parameters for trilacicliba
Ka (/h) 20.0 (FIXED) Assumptionb
Bioavailability (oral, mouse) 0.62 Estimated
Intercompartment rate constant 15.94 Estimated
Intercompartment clearance K42 0.29 Estimated
Allometric exponent for V 1.00 Estimated
Allometric exponent for CL 1.00 (FIXED) Assumptionc
Additive error 2.00 (FIXED) Assumptiond
Proportional error 0.32 Estimated
PD model parameters for trilaciclib and
Rate constant for BM precursor G 0.04 (FIXED) Assumption e
Rate constant for neutrophils 3.24*E-2 (FIXED) Assumption f
Max effect of G1T28 in the E max 1.00 (FIXED) Assumption g
Concentration of G1T28 with 5.90 Estimated
Feedback slope (/h) 1.00*E-6 (FIXED) Assumptionh
Scale for neutrophils in mice 150 Estimated
Scale for neutrophils in dogs 848 Estimated
EC50 as fraction of baseline value 2.00 Estimated
of persistence effect . Effect is on
transition of S phase cells to G1
Rate constant for stem cell G to 0.51 Estimated
Residual error variance 0.73 Estimated
aPK model parameters for 5 -FU were obtained from the literature
K a could not be estimated and
cThe allometric exponent for CL was estimated to be 0.945 from an earlier model during the model development
process and was fixed to 1 .00 for the purpose of model simplification to avoid overparameterization
dThe additive error was fixed to 20% of the assay LLOQ (10 ng/mL) to decrease the number of parameters to fit […]

[5] = test system: murine HSCs / total bone marrow cycling cells; set-up: method as in PMID 28446688; conditions: mouse, at concentrations giving maximum decrease in total bone marrow cycling cells; cited from earlier work

SMILES: CN1CCN(c2ccc(Nc3ncc4cc5n(c4n3)C3(CCCCC3)CNC5=O)nc2)CC1 [trilaciclib]
- maximum decrease from baseline in total bone marrow cycling cells [1]: ~ 50%
- inhibition at 96 mg/m2 [2]: 37.2%
- most commonly reported AEs [3]: headache and nausea
- severe AEs [3]: No severe AEs were reported
- time to spontaneous resolution of all moderate AEs [3]: ≤ 24 h
- bioavailability ([4]; 150 mg/kg, oral, mouse): 62%
- Intercompartment clearance K24 [4]: 2.03 h⁻¹
- Intercompartment clearance K32 [4]: 4.42 h⁻¹
- Intercompartment clearance K42 [4]: 0.29 h⁻¹
- Intercompartment rate constant K23 [4]: 15.94 h⁻¹
- clearance ([4]; mouse, rat, dog, human, three-compartment model, allometric scaling, read-out: CL, PK model (converted)): 46.2 mL/min/kg
- Vd ([4]; mouse, rat, dog, human, three-compartment model, allometric scaling, read-out: V (central volume of distribution), PK model): 1.32 L/kg
- HSPCs arrested in the G1 phase [5]: ~100%
